The results in this text go back to the supplement of paper PMC11208160.
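Note: IS621 bridge recombinase in Escherichia coli cells against a fixed T5 target plasmid.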

The series is described as follows: recombinant UMI read abundance after kanamycin selection (control-corrected) (log10(CPM+1)); higher = more efficient recombination; extreme values may be limits of the assay; sequences stand for … in AGTGCAGAGAAAATCGGCCAGTTTTCTCTGCCTGCAGTCCGCATGCCGTGGGACCCCTTGGGTTCTAACCTGTTGCCTAGATTTATGCAGCGGACTGCCTTTCTCCCAAAGTGATAAACCGG…AGGTTGGTTTCACT; site = the 11-nt donor. Put shortly:
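Two replicates each of selected and unselected plating were used in this pooled Escherichia coli screen of donor and donor-binding-loop pairs for the IS621 bridge recombinase. Selection was with IPTG (0.07 mM) and kanamycin. Counts of recombinant UMIs, amplified across the donor–target junction, were converted to CPM, averaged, scaled by control-derived factors and reported as log10(CPM+1).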
For “AGGACTACATGGACCGGTTTTCCCGGTAATCCGTATTTGGC (site AGGACTACTGG)”, the “recombinant UMI read abundance (log10)” value was determined as 0.

Regarding “AGGACTACATGGACCGGTTTTCCCGGTAATCCGTATTTGGC (site AGGACTACTGT)”, the “recombinant UMI read abundance (log10)” value turned out to be 1.61.

On to “AGGACTTCATGGACCGGTTTTCCCGGTAATCCGTATTTGAC (site AGGACTACTGT)”, for which the “recombinant UMI read abundance (log10)” value stood at 0.

Take “AGGACTTCATGGACCGGTTTTCCCGGTAATCCGTATTTGAC (site AGGACTCCTGT)”: the “recombinant UMI read abundance (log10)” value worked out at 0.509.

On to “AGGACTTCATGGACCGGTTTTCCCGGTAATCCGTATTTGAC (site AGGACTGCTGT)”, for which the “recombinant UMI read abundance (log10)” value came to 0.

For the sequence “AGGACTTCATGGACCGGTTTTCCCGGTAATCCGTATTTGAC (site AGGACTTCTGT)”, the “recombinant UMI read abundance (log10)” value amounted to 2.76.

As for “AGGAGGACATGGACCGGTTTTCCCGGTAATCCGTATTTGAA (site AGGAAGACTTG)”, the “recombinant UMI read abundance (log10)” value is 0.

In the case of “AGGAGGACATGGACCGGTTTTCCCGGTAATCCGTATTTGAA (site AGGAGGACTTT)”, the “recombinant UMI read abundance (log10)” value was 2.19.

Regarding “AGGAGGACATGGACCGGTTTTCCCGGTAATCCGTATTTGCC (site AGGAAGACTTG)”, the “recombinant UMI read abundance (log10)” value was 0.

“AGGAGGACATGGACCGGTTTTCCCGGTAATCCGTATTTGCC (site AGGAGGACTGG)”: the “recombinant UMI read abundance (log10)” value was determined as 1.68.

Turning to “AGGATGACATGGACCGGTTTTCCCGGTAATCCGTATTTGCG (site AGGAAGACTTG)”, the “recombinant UMI read abundance (log10)” value worked out at 0.

As for “AGGATGACATGGACCGGTTTTCCCGGTAATCCGTATTTGCG (site AGGATGACTCG)”, the “recombinant UMI read abundance (log10)” value was determined as 2.3.

In the case of “AGGCACGCATGGACCGGTTTTCCCGGTAATCCGTATTTGGG (site AAGCACGCTCC)”, the “recombinant UMI read abundance (log10)” value came to 0.371.

“AGGCACGCATGGACCGGTTTTCCCGGTAATCCGTATTTGGG (site ACGCACGCTCC)”: the “recombinant UMI read abundance (log10)” value turned out to be 0.183.

On to “AGGCACGCATGGACCGGTTTTCCCGGTAATCCGTATTTGGG (site AGGCACGCTCC)”, for which the “recombinant UMI read abundance (log10)” value came out at 1.76.

Take “AGGCACGCATGGACCGGTTTTCCCGGTAATCCGTATTTGGG (site ATGCACGCTCC)”: the “recombinant UMI read abundance (log10)” value came to 0.0107.

Take “AGGCACTCATGGACCGGTTTTCCCGGTAATCCGTATTTGCA (site AGGCACTCTTG)”: the “recombinant UMI read abundance (log10)” value turned out to be 2.66.

As for “AGGCGAGCATGGACCGGTTTTCCCGGTAATCCGTATTTGCG (site AGGCGAGCTCG)”, the “recombinant UMI read abundance (log10)” value stood at 2.02.

Take “AGGCGTGCATGGACCGGTTTTCCCGGTAATCCGTATTTGGA (site AGGCGTGCTTC)”: the “recombinant UMI read abundance (log10)” value is 0.745.

Turning to “AGGCTAGCATGGACCGGTTTTCCCGGTAATCCGTATTTGTT (site AGACTAGCTAA)”, the “recombinant UMI read abundance (log10)” value amounted to 0.334.

In the case of “AGGCTAGCATGGACCGGTTTTCCCGGTAATCCGTATTTGTT (site AGCCTAGCTAA)”, the “recombinant UMI read abundance (log10)” value stood at 0.017.

Consider “AGGCTAGCATGGACCGGTTTTCCCGGTAATCCGTATTTGTT (site AGGCTAGCTAA)”, for which the “recombinant UMI read abundance (log10)” value came to 0.779.

“AGGCTAGCATGGACCGGTTTTCCCGGTAATCCGTATTTGTT (site AGTCTAGCTAA)”: the “recombinant UMI read abundance (log10)” value was found to be 0.0182.

Regarding “AGGCTGGCATGGACCGGTTTTCCCGGTAATCCGTATTTGTC (site AGGCTGGCTGA)”, the “recombinant UMI read abundance (log10)” value was 0.

On to “AGGGAAACATGGACCGGTTTTCCCGGTAATCCGTATTTGCA (site AGGAAGACTTG)”, for which the “recombinant UMI read abundance (log10)” value was 0.301.

“AGGGAAACATGGACCGGTTTTCCCGGTAATCCGTATTTGCA (site AGGGAAACTTG)”: the “recombinant UMI read abundance (log10)” value was found to be 1.42.

“AGGGAACCATGGACCGGTTTTCCCGGTAATCCGTATTTGAT (site AGGGAACCTAT)”: the “recombinant UMI read abundance (log10)” value worked out at 0.

Regarding “AGGGAACCATGGACCGGTTTTCCCGGTAATCCGTATTTGAT (site CGGGAACCTAT)”, the “recombinant UMI read abundance (log10)” value was 0.

“AGGGAACCATGGACCGGTTTTCCCGGTAATCCGTATTTGAT (site GGGGAACCTAT)”: the “recombinant UMI read abundance (log10)” value worked out at 0.

In the case of “AGGGAACCATGGACCGGTTTTCCCGGTAATCCGTATTTGAT (site TGGGAACCTAT)”, the “recombinant UMI read abundance (log10)” value was 0.

On to “AGGGAGACATGGACCGGTTTTCCCGGTAATCCGTATTTGCC (site AGGGAGACTGG)”, for which the “recombinant UMI read abundance (log10)” value was 1.26.

With “AGGGAGACATGGACCGGTTTTCCCGGTAATCCGTATTTGCG (site AGGAAGACTTG)”, the “recombinant UMI read abundance (log10)” value was determined as 0.64.

As to “AGGGAGACATGGACCGGTTTTCCCGGTAATCCGTATTTGCG (site AGGGAGACTCG)”, the “recombinant UMI read abundance (log10)” value was 1.54.

In the case of “AGGGAGCCATGGACCGGTTTTCCCGGTAATCCGTATTTGCC (site AGGGAGCCTGG)”, the “recombinant UMI read abundance (log10)” value amounted to 0.

For the sequence “AGGGCTACATGGACCGGTTTTCCCGGTAATCCGTATTTGAC (site AGGACTACTGT)”, the “recombinant UMI read abundance (log10)” value amounted to 1.24.

In the case of “AGGGCTACATGGACCGGTTTTCCCGGTAATCCGTATTTGAC (site AGGCCTACTGT)”, the “recombinant UMI read abundance (log10)” value came out at 0.

As for “AGGGCTACATGGACCGGTTTTCCCGGTAATCCGTATTTGAC (site AGGGCTACTGT)”, the “recombinant UMI read abundance (log10)” value was 2.55.

Take “AGGGCTACATGGACCGGTTTTCCCGGTAATCCGTATTTGAC (site AGGTCTACTGT)”: the “recombinant UMI read abundance (log10)” value worked out at 1.

Turning to “AGGGTCCCATGGACCGGTTTTCCCGGTAATCCGTATTTGTC (site AGGGTCCCTGA)”, the “recombinant UMI read abundance (log10)” value was 0.534.

Turning to “AGGTAAACATGGACCGGTTTTCCCGGTAATCCGTATTTGAG (site AGGTAAACTCT)”, the “recombinant UMI read abundance (log10)” value turned out to be 2.07.

As to “AGGTAGACATGGACCGGTTTTCCCGGTAATCCGTATTTGCC (site AGGAAGACTTG)”, the “recombinant UMI read abundance (log10)” value was 0.

On to “AGGTAGACATGGACCGGTTTTCCCGGTAATCCGTATTTGCC (site AGGTAGACTGG)”, for which the “recombinant UMI read abundance (log10)” value is 2.79.

Regarding “AGGTAGGCATGGACCGGTTTTCCCGGTAATCCGTATTTGTT (site AGGTAGGCTAA)”, the “recombinant UMI read abundance (log10)” value was 1.94.

In the case of “AGGTATCCATGGACCGGTTTTCCCGGTAATCCGTATTTGTC (site AGGTATCCTGA)”, the “recombinant UMI read abundance (log10)” value was found to be 0.494.

“AGGTCAGCATGGACCGGTTTTCCCGGTAATCCGTATTTGAT (site AGGTCAGCTAT)”: the “recombinant UMI read abundance (log10)” value was 1.84.

“AGGTCTACATGGACCGGTTTTCCCGGTAATCCGTATTTGAC (site AGGACTACTGT)”: the “recombinant UMI read abundance (log10)” value came out at 0.

As to “AGGTCTACATGGACCGGTTTTCCCGGTAATCCGTATTTGAC (site AGGCCTACTGT)”, the “recombinant UMI read abundance (log10)” value amounted to 2.1.

On to “AGGTCTACATGGACCGGTTTTCCCGGTAATCCGTATTTGAC (site AGGGCTACTGT)”, for which the “recombinant UMI read abundance (log10)” value turned out to be 0.00558.

With “AGGTCTACATGGACCGGTTTTCCCGGTAATCCGTATTTGAC (site AGGTCTACTGT)”, the “recombinant UMI read abundance (log10)” value turned out to be 1.18.

In the case of “AGGTGCCCATGGACCGGTTTTCCCGGTAATCCGTATTTGGA (site AGGTGCCCTTC)”, the “recombinant UMI read abundance (log10)” value was determined as 0.00688.

For the sequence “AGGTGGGCATGGACCGGTTTTCCCGGTAATCCGTATTTGTG (site AGGTGGGCTCA)”, the “recombinant UMI read abundance (log10)” value was 1.56.

As for “AGGTTAGCATGGACCGGTTTTCCCGGTAATCCGTATTTGAG (site AGGTTAGCTCT)”, the “recombinant UMI read abundance (log10)” value is 1.94.
